Converted amounts (≈) assume the structure as drawn. Like-named read-outs stand apart in the source and are kept apart here.
Assays:
[1] = oral, 40 mg/kg, mice (Gu et al., 2018); cited from earlier work
SK-N-BE(2)c = assay: Cell growth IC50, screening of AOH1160 analogs; type: cell-based; conditions: Homo sapiens
Protocol: (§1) FIG. 29. IC50 data for select compounds. The indicated cell lines were seeded at 10^4 cells per well in a 96 well plate. After allowing to attach to the plate overnight, cells were treated with various concentrations of the indicated compounds in triplicates for 72 hrs. The cell growth was measured by an SRB assay. The cell abundances under each treatment condition relative to the baseline were averaged and graphed ±S.D. The baseline is defined as the median value of the cell abundances under the treatment by the two lowest compound concentrations. The IC50 was calculated by the Prism program.

SK-N-AS = assay: Cell growth IC50, screening of AOH1160 analogs; type: cell-based; conditions: Homo sapiens, read-out: IC50 values
Protocol: as §1

SK-N-DZ = assay: Cell growth IC50, screening of AOH1160 analogs; type: cell-based; conditions: Homo sapiens
Protocol: as §1

Hela = assay: Cell growth IC50, screening of AOH1160 analogs; type: cell-based; conditions: Homo sapiens, HeLa; read-out: IC50 values
Protocol: as §1

SK-MEL-28 = assay: Cell growth IC50, screening of AOH1160 analogs; type: cell-based; conditions: Homo sapiens
Protocol: as §1

SK-MEL-5 = assay: Cell growth IC50, screening of AOH1160 analogs; type: cell-based; conditions: Homo sapiens
Protocol: as §1

MDA-MB-468 = assay: Cell growth IC50, screening of AOH1160 analogs; type: cell-based; conditions: Homo sapiens, MDA-MB-468; read-out: IC50 values
Protocol: as §1

[2] = Cell growth IC50, screening of AOH1160 analogs (cell line not given); type: cell-based
Protocol: as §1

SH-SY5Y = assay: Cell growth IC50, screening of AOH1160 analogs; type: cell-based; conditions: Homo sapiens
Protocol: as §1

SK-N-FI = assay: Cell growth IC50, screening of AOH1160 analogs; type: cell-based; conditions: Homo sapiens
Protocol: as §1

MDA-MB-231 = assay: Cell growth IC50, screening of AOH1160 analogs; type: cell-based; conditions: Homo sapiens
Protocol: as §1

OVCAR8 = assay: Cell growth IC50, screening of AOH1160 analogs; type: cell-based; conditions: Homo sapiens, OVCAR-8; OVCAR8; read-out: IC50 values
Protocol: as §1

PCNA = biological target: T1, PCNA (Homo sapiens, UniProt P12004); assay: Thermal denaturation (thermal shift) assay; type: binding; conditions: 9 μM PCNA; 10 or 30 μM compound; dose dependent
T1 construct: made in house; host or cells: E. coli Rosetta 2 (DE3)
T1 sequence (P12004 whole entry): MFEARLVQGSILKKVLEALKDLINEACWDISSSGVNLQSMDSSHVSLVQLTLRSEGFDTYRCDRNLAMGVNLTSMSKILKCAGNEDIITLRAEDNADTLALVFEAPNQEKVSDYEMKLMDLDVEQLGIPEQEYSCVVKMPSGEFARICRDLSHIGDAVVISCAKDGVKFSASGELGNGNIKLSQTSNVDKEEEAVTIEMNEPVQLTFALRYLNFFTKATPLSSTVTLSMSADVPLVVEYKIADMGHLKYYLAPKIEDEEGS
Protocol: FIGS. 1A-1E. AOH1160 analog interactions with PCNA. FIG. 1A: Thermal shift assay: Normalized inverse derivative thermal denaturation plots of 9 μM apo-PCNA with DMSO control is depicted with a black dashed line and PCNA in the presence of 10 μM AOH1160LE is shown in light grey and 30 μM AOH1160LE in dark grey. ΔTm values are provided. FIG. 1B: As described in FIG. 1A, in the presence of 10 μM AOH1996 depicted in light grey and 30 μM AOH1996 depicted in dark grey. FIG. 1C: Four monomers (chains A-D) of PCNA are present in the asymmetric unit of the crystal. Chains A, B, and C form the homotrimer biological unit, while chain Dis orientated perpendicular to the plane of the ring, below the interface of chains B and C and it belongs to an adjacent ring. Inset: Three molecules of AOH1160LE bind in and adjacent to the PIP box cavity of each of the PCNA ring subunits. The omit map, gray mesh, is contoured to 1.56. Two PCNA monomer subunits from adjacent rings stack against each other, placing the PIP box and IDCLs of each subunit in opposing directions. FIG. 1D: The three AOH1160LE molecules are shown as stick figure representations. Two of the compounds, left and central, bind into the PIP box cavity at known PCNA-partner/compound interaction sites. […] The electrostatic surface maps are depicted with Poisson-Boltzmann electrostatic surface potentials shown in dark grey and light grey, corresponding to −10 to +10 kT/e respectively.
Targeting the PIP box and APIM binding domain of PCNA. AOH1160, a small molecule PCNA ligand, targets the cancer-distinct L126-Y133 region of PCNA (Malkas et al., 2006) and is selectively toxic to cancer cells (Gu et al., 2018). […]
Thermal denaturation assay for PCNA-AOH1996 interaction. […] Fluorescence intensity was measured within the excitation/emission ranges 470-505/540-700 nm.

[3] = Solubility in aqueous buffer with 10% DMSO; type: physicochemical; conditions: pH 7.4, aqueous with cosolvent or surfactant or cyclodextrin, read-out: soluble at concentration
Protocol: AOH1160LE was soluble at a 4 mM concentration in aqueous buffer with 10% DMSO, which enabled co-crystallization studies on this analog. A PCNA:AOH1160LE co-crystal diffracted to 2.85 Å resolution at the synchrotron source, and phasing was provided by molecular replacement. Four PCNA subunits were present in the asymmetric unit, with three, chains A, B, C belonging to the homotrimeric ring structure, and the fourth, chain D (FIG. 1C) forms part of an adjacent ring in the unit cell that consists solely of D chains. Packing within the unit cell also places each monomer subunit of the PCNA ring against a subunit from another ring; these two stacked subunits interact via their PIP box binding pockets and […] IDCLs that are orientated in directly opposing directions (FIG. 1D). Clearly observed within the electron density maps are three molecules of AOH1160LE, which bind in and adjacent to the PIP box cavity of each of the PCNA ring subunits, and these compounds have further interactions with the PIP box pocket of the stacked PCNA subunit (FIG. 1D).
Expression, purification and crystallization of PCNA. Human PCNA in a pET22b-hPCNA vector was transformed into E. coli Rosetta 2 (DE3) cells. PCNA expression was induced by 0.4 mM IPTG, OD600=0.6, and cells were grown for 5 hrs at 37° C. […]

## O=C(CNC(=O)c1cccc2ccccc12)Nc1ccccc1Oc1ccccc1 [AOH1160]
[1]
  half-life: 3.4 h
SK-N-BE(2)c
  IC50: 0.325 µM
SK-N-AS
  IC50: 0.107 µM
SK-N-DZ
  IC50: 0.237 µM

## O=C(CNC(=O)c1cccc2ccccc12)Nc1ccccc1Sc1ccccc1 [AOH1160S, N-(2-oxo-2-((2-(phenylthio)phenyl)amino)ethyl)-1-naphthamide]
Hela
  IC50: 0.29 µM
SK-MEL-28
  IC50: 0.34 µM
SK-MEL-5
  IC50: 0.61 µM
MDA-MB-468
  IC50: 0.316 µM

## C[C@H](NC(=O)c1cccc2ccccc12)C(=O)Nc1ccccc1Oc1ccccc1 [AOH1160LA, (S)—N-(1-oxo-1-((2-phenoxyphenyl)amino)propan-2-yl)-1-naphthamide]
[2]; FIG. 25, read-out: IC50
  IC50: ~3 µM
SH-SY5Y
  IC50: 4 µM
MDA-MB-468
  IC50: 4.9 µM
SK-N-FI
  IC50: 3 µM

## O=C(CNC(=O)c1cccc2ccccc12)Nc1ccccc1Sc1ccccc1F [AOH1996S-2F, N-(2-((2-((2-fluorophenyl)thio)phenyl)amino)-2-oxoethyl)-1-naphthamide]
MDA-MB-231
  IC50: 0.22 µM
OVCAR8
  IC50: 0.41 µM

## O=C(O)CC[C@H](NC(=O)c1cccc2ccccc12)C(=O)Nc1ccccc1Oc1ccccc1 [AOH1160LE]
[2]; read-out: IC50 values
  IC50: > 10 µM
PCNA
  shift of protein melting curves (ΔTm): ≤ 0.5 °C
[3]
  solubility: 4 mM (≈ 1870 µg/mL)

Source: patent US20250171404A1, “PCNA INHIBITORS AND USES THEREOF” (CITY OF HOPE, priority 2022, published 2025)
